Test results from patent publication EP1209147A1, “CARBOXYLIC ACID DERIVATIVES AND ADHESION MOLECULE INHIBITORS CONTAINING THE SAME AS THE ACTIVE INGREDIENT” (TORAY INDUSTRIES, INC., priority 1999, dated 2001).
Like-named read-outs stand apart in the source and are kept apart here.

Key:
[1] = biological target: VLA-4-IgG chimeric protein (Homo sapiens, UniProt P05556+P13612); assay: Inhibition of binding between CS-1 peptide and VLA-4-IgG chimeric protein
Procedure: The adhesion-inhibition activity of the compound of the present invention against VLA-4 may be examined by using an adhesion assay system in which the adhesion between VLA-4-expressing cells such as Ramos cells and Jurkat cells, and fibronectin or a fragment thereof, e.g., a peptide containing CS-1 sequence (Gly Pro Glu Ile Leu Asp Val Pro Ser Thr) (hereinafter referred to as "CS-1 peptide") immobilized on an immunoplate is measured. Alternatively, a binding assay system in which the binding of the VLA-4 protein to the fibronectin or a fragment thereof such as CS-1 peptide immobilized on an immunoplate is measured may be employed. In the present invention, the inhibition assay of the compound is preferably measured by a binding assay system which measures the binding between a chimeric protein of VLA-4 and immunoglobulin (VLA-4-IgG chimeric protein) and CS-1 peptide (Japanese patent application No. H9-234544), although the method of measuring the inhibition activity is not restricted to this method. The term "VLA-4-IgG chimeric protein" herein means the heterodimer composite molecule in which a chimeric protein between α4 of VLA-4 and immunoglobulin (hereinafter referred to as "VLAα4·IgG chimeric protein), and a chimeric protein between β1 of VLA-4 and immunoglobulin (hereinafter referred to as "VLAβ1·IgG chimeric protein) are associated. As the immunoglobulin, although heavy chain or light chain of IgG, IgM or the like may be employed, in the present invention, IgG1 heavy chain is used. When testing the inhibition activity of the compound, it is preferred to preliminarily mix the VLA-4-IgG chimeric protein and the test compound.
Effects of Compounds for Inhibition of Binding Between CS-1 Peptide and VLA-4-IgG
A conjugate between a peptide (Gys Leu His Gly Pro Glu Ile Leu Asp Val Pro Ser Thr) containing CS-1 sequence and rabbit IgG (Sigma) was prepared by the reported method (Humphries, M.J. et al. J. Biol.Chem., 262, 6886-6892 (1987)). The obtained conjugate was diluted with phosphate buffer (hereinafter referred to as "PBS(-)", NISSUI) and the resulting solution was placed in wells of a 96-well immunoplate (NUNC) in an amount of 100 µl/well, followed by leaving the solution to stand at 4°C for 16 hours to immobilize the conjugate.
Then each well was washed twice with PBS(-), and a PBS solution containing 1% BSA heat-treated at 80°C for 10 minutes was placed in each well in an amount of 300 µl/well. The immunoplate was left to stand at 4°C for 3 hours, and then the solution in each well was removed by aspiration.
After preliminarily allowing each compound to react with VLA-4-IgG chimeric protein (100 µl) at room temperature for 20 minutes, the resulting solution was allowed to react with CS-1 peptide in each well at 30°C for 3 hours. Thereafter, non-bound VLA-4-IgG chimeric protein was removed by aspiration and each well was washed twice with 0.1% BSA-containing TBS buffer (150 mM NaCl,25 mM Tris-HCI, 1 mM MnCl2 pH 7.4). To the bound VLA-4-IgG chimeric protein, biotin-labeled anti-human IgG antibody (Vector) as an primary antibody was added, and then avidin-labeled horse radish peroxidase (Sigma) as a secondary antibody was added, and the reaction was allowed to occur. After the reaction, o-phenylenediamine as a substrate was added to color the solution, and the absorbance at 490 nm was measured. From the absorbance, the binding-inhibition activity of each test compound was determined.

Mouse Asthma Model = assay: Mouse asthma model (OVA/Alum sensitization, OVA inhalation, airway anaphylaxis and BALF eosinophils); type: in vivo, BLAB/c mouse; details: at a dose of not more than 150 mg/kg, topically or systemically
Procedure: A mixed solution containing aluminum hydroxide gel (Alum) on which ovalbumin (hereinafter "OVA") was adsorbed (20 ∝g OVA/2mg Alum/200 ∝l physiological saline) was intraperitoneally administered to each BLAB/c mouse (female, 7 weeks old, JAPAN CHARLES RIVER) at a dose of 200 ∝l ([…]) per time on DAY-1 and DAY-14 to sensitize the mouse. Then each mice was made to aspire 2% OVA dissolved in physiological saline on DAY-28, 29 and 30 to induce inflammation. Compound Nos. 143 and 236 used as the test compounds were dissolved in physiological saline and each solution was topically or systemically administered at 30 minutes before induction by OVA, and twice a day after induction.
On DAY-31, development of airway anaphylaxis was measured using a non-restrictive chamber (BUXCO). Then the bronchus of each mouse was incised and the bronchus and alveoli were washed (BAL) with 0.7 ml of physiological saline. After the washing, the washing fluid (BALF) of the bronchus and alveoli was recovered and centrifuged. The leukocytes contained in the BALF were subjected to site spin to prepare a smear specimen. After staining the specimen by May-Giemsa staining method, the leukocytes were grouped and counted under microscope to determine the number of eosinophils. The experiment was carried out using 6 to 8 mice in each group. The results are shown in terms of mean ± standard error.

Auricular Edema Model = assay: Auricular edema model (IgE anti-DNP passive sensitization, DNFB induction); type: in vivo, BLAB/c mouse; details: at a dose of not more than 150 mg/kg; topically or systemically, totally 3 times
Procedure: To each BLAB/c mouse (female, 7 weeks old, JAPAN CHARLES RIVER), mouse IgE anti-DNP antibody (5 mg/kg, SEIKAGAKU CORPORATION) was intravenously administered to passively sensitize the mouse. Twenty four hours later, 20 µl of 0.38% 2,4- dinitrofluorobenzene (DNFB, Aldrich) dissolved in acetone:olive oil (4:1) was applied to the auricle of the sensitized mouse to induce inflammation. The thickness of the auricle was measured until 24 hours after the induction with Digimatic Indicator (Mitutoyo) and the ear swelling rate was calculated according to the following equation: Ear Swelling Rate (%) = (A - B)/B x 100 [formula] • A: Thickness of right auricle at 24 hours after induction • B: Thickness of right auricle before induction
Twenty four hours after the induction, the auricle was cut off and fixed with formalin. After the fixation, continuous sections of the auricle were prepared and stained by Luna staining. The number of eosinophils in each section was counted and the total of them was defined as the number of eosinophils accumulated in the auricle.
Compound No. 140 used as the test compound was dissolved in physiological saline and the solution was intravenously administered totally 3 times, i.e., at the time of sensitization, at 8 hours and 24 hours after sensitization, at a dose of 400 mg/kg per each time. Further, to examine the effect of the compound when applied to the auricle, the compound was dissolved in ethanol, and the solution was applied to the auricle totally twice, i.e., at 8 hours after sensitization and at 1 hour before the induction, at a dose of 0.3 mg/ear. To the background group and the control group, physiological saline was intravenously administered and ethanol was applied, respectively. The experiment was carried out using 4 to 6 mice in each group. The results are shown in terms of mean ± standard error.
Twenty four hours after the induction, the auricle was cut off and fixed with formalin. After the fixation, continuous sections of the auricle were prepared and stained by Luna staining. The number of eosinophils in each section was counted. Compound No. 143 used as the test compound was dissolved in physiological saline and the solution was topically or systemically administered totally 3 times, i.e., at the time of sensitization, at 8 hours and 24 hours after sensitization. The experiment was carried out using 4 to 6 mice in each group. The results are shown in terms of mean ± standard error.

[2] = binding of VLA-4-IgG chimeric protein to immobilized CS-1 peptide, compound preincubated 20 minutes, read-out: Inhibition Activity(IC50 : nM)

VLA-4-IgG chimeric protein, sequence (P13612 with tags, fused parts or gaps limits assumed): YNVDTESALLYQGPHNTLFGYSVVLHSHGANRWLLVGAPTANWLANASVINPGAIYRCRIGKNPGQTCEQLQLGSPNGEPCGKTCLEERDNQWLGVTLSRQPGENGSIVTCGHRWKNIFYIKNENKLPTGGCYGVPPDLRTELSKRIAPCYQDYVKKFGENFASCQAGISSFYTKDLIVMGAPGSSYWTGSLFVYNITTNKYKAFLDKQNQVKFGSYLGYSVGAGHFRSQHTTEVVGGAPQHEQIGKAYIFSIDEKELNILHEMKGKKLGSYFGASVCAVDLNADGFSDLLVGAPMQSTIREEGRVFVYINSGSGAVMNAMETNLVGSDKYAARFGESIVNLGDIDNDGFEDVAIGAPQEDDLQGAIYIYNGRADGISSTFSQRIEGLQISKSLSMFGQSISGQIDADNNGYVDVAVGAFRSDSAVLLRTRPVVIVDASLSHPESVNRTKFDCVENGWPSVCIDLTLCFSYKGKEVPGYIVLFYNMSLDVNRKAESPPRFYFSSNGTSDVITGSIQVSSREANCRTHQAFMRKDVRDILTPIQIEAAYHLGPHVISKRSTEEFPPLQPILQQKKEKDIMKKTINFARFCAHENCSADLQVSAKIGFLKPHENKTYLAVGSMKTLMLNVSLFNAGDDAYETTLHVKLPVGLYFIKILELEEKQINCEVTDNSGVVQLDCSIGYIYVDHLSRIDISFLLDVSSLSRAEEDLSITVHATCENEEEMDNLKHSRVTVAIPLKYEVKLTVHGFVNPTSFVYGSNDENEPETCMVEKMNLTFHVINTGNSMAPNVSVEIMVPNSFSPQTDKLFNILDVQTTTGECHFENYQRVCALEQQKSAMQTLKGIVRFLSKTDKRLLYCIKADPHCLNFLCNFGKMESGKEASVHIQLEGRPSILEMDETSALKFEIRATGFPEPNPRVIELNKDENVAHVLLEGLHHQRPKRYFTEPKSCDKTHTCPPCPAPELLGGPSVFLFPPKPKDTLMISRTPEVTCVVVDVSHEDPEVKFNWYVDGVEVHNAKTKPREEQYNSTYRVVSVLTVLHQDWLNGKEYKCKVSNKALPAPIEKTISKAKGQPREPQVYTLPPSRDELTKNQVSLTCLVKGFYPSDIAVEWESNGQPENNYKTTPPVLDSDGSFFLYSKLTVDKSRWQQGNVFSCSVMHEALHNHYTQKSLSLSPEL
VLA-4-IgG chimeric protein, sequence (P05556 with tags, fused parts or gaps limits assumed): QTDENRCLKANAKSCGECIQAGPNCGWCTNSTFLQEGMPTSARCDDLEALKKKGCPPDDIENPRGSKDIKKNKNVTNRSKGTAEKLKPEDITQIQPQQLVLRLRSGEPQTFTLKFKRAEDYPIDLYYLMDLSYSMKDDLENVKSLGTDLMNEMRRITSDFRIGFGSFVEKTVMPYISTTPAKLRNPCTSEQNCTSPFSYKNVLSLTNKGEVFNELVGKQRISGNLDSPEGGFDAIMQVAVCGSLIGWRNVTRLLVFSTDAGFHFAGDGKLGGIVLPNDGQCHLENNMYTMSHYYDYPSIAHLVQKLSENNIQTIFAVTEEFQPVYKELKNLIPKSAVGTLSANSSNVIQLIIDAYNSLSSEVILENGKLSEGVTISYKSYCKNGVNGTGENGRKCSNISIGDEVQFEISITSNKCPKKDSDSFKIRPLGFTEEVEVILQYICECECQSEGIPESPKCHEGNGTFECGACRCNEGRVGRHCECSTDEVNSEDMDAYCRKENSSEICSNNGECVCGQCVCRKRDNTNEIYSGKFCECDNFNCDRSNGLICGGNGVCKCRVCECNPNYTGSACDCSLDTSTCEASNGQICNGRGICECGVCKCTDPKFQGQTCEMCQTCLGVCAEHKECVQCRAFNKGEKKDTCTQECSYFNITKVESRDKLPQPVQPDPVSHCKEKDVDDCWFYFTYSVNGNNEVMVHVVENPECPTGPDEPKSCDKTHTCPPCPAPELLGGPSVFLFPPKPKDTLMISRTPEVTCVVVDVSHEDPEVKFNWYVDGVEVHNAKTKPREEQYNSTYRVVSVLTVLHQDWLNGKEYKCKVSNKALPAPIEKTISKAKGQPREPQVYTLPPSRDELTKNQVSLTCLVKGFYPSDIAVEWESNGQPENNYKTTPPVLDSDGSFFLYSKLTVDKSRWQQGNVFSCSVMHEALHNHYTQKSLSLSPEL

Row | Compound | IC50 [1, 2] | IC50 [1] | further results
1 | CC(C)CC(C(=O)N[C@@H](CSSC[C@H](NC(=O)CC(C)(C)C)C(=O)O)C(=O)O)c1ccc(O)cc1 (stereo partly drawn) [Example 62, 3-((2(R)-carboxy-2(R)-(2(R,S)-(4-hydroxyphenyl)-4-methylpentanoylamino)ethyl)disulfanyl)-2(R)-(3,3-dimethylbutanoylamino)propionic acid] |  | 90 nM | 
2 | O=C(O)CCc1ccc(C[C@H](NC(=O)c2c(Cl)cccc2Cl)C(=O)O)cc1 [Example 161, 2(S)-2-((2,6-dichlorophenyl)carbonylamino)-3-(4-(2-carbaxyethyl)phenyl)propionic acid] |  | 64 nM | 
3 | 3-((2(R)-((1-acetyl-3(R,S)-(4-hydroxyphenyl)pyrrolidin-2(R,S)-yl)carbonylamino)-2(R)-carbonylethyl)disulfanyl)-2(R)-(3,3-dimethylbutanoylamino)propionic acid [Example 74] | 120 nM |  | 
4 | CC(C)CC(C(=O)NCCCSC[C@H](NC(=O)CC(C)(C)C)C(=O)O)c1ccc(O)cc1 (stereo partly shown) [Example 19] |  | 500 nM | 
5 | O=C(N[C@@H](CCSC[C@H](NC(=O)c1c(Cl)cccc1Cl)C(=O)O)C(=O)O)c1c(Cl)cccc1Cl [Example 180, 4-((2R)-2-((2,6-dichlorophenyl)carbonylamino)-2-carboxyethylthio) (2S)-2-((2,6-dichlorophenyl)carbonylamino)butyric acid] |  |  | IC50 ([1]; read-out: Inhibition Activity(IC50 : nM), binding of VLA-4-IgG chimeric protein to immobilized CS-1 peptide, compound preincubated 20 minutes): 38 nM
6 | CC(C)CC(C(=O)N[C@@H](CCSC[C@H](NC(=O)C(CC(C)C)c1ccc(O)cc1)C(=O)O)C(=O)O)c1ccc(O)cc1 (stereo partly drawn) [Example 8, 4-(2(R)-carboxy-2(R)-(2(R,S)-(4-hydroxyphenyl)-4-methylpentanoylamino)ethylthio)-2(S)-(2(R,S)-(4-hydroxyphenyl)-4-methylpentanoylamino) butyric acid] |  | 200 nM | 
7 | CC(C)CC(C(=O)N[C@@H](CCSC[C@H](NC(=O)CC(C)(C)C)C(=O)O)C(=O)O)c1ccc(O)cc1 (stereo partly drawn) [Example 14, 4-(2(R)-carboxy-2(R)-(3,3-dimethylbutanoylamino)ethylthio)-2(S)-(2(R,S)-(4-hydroxyphenyl)-4-methylpentanoylamino) butyric acid] |  | 500 nM | 
8 | (2R)-3-(((2S)-1-(2-cyclohexylacetyl)pyrrolidin-2-yl)methylthio)-2-(3,3-dimethylbutanoylamino)propionic acid [Example 193] | 2200 nM |  | 

Second part, led by results:

Row | IC50 [1, 2] | Compound | IC50 [1] | further results
9 | 160 nM | CC(C)CC(C(=O)NC(Cc1ccc(CCC(=O)O)cc1)C(=O)O)c1ccc(O)cc1 (single isomer, unassigned) [Example 120, 3-(4-(2-carboxyethyl)phenyl)-2-(2-(4-hydroxyphenyl)-4-methylpentanoylamino)propionic acid] |  | 
10 | 780 nM | CC(C)C[C@H](NC(=O)Cc1ccc(NC(=O)Nc2ccccc2)cc1)C(=O)N[C@@H](Cc1ccc(CCC(=O)O)cc1)C(=O)O [Example 171, (2S)-2-((2S)-4-methyl-2-(2-(4-((phenylamino)carbonylamino)phenyl)acetylamino)pentanoylamino)-3-(4-(2-carboxyethyl)phenyl)propionic acid] |  | 
11 | 13 nM | CC(C)C[C@H](NC(=O)Cc1ccc(NC(=O)Nc2ccccc2)cc1)C(=O)N[C@@H](CCSC[C@H](NC(=O)CC(C)(C)C)C(=O)O)C(=O)O [Example 176, 4-((2R)-2-(3,3-dimethylbutanoylamino)-2-carboxyethylthio)-(2S)-2-((2S)-4-methyl-2-(2-(4-((phenylamino)carbonylamino)phenyl)acetylamino)pentanoylamino)butyric acid] |  | 
12 | 500 nM | CC(C)C[C@H](OCc1ccccc1)C(=O)N[C@@H](Cc1ccc(OCC(C)(C)C)cc1)C(=O)O [Example 102, 2(S)-(4-methyl-2(S)-(phenylmethoxy)pentanoylamino)-3-(4-(2,2-dimethylpropoxy)phenyl)propionic acid] |  | 
13 | 1800 nM | CC(C)CC(NC(=O)CCc1ccc(CC(NC(=O)CC(C)(C)C)C(=O)O)cc1)c1ccc(O)cc1 (stereo not shown) [Example 131, 3-(4-(2-(N-(1-(4-hydroxyphenyl)-3-methylbutyl)carbamoyl)ethyl)phenyl)-2-(3,3-dimethylbutanoylamino)propionic acid] |  | 
14 | 430 nM | O=C(NC(CCCCC(NC(=O)c1c(Cl)cccc1Cl)C(=O)O)C(=O)O)c1c(Cl)cccc1Cl (stereo not shown) [Example 154, 2,7-bis((2,6-dichlorophenyl)carbonylamino)octanedioic acid] |  | 
15 | 13 nM | COc1cccc(OC)c1C(=O)NCCCC(NC(=O)c1c(Cl)cccc1Cl)C(=O)O (stereo not shown) [Example 143, 2-((2,6-dichlorophenyl)carbonylamino)-5-((2,6-dimethoxyphenyl)carbonylamino)pentanoic acid] |  | accumulation of eosinophils to the lung (Mouse Asthma Model; BALF on DAY-31): inhibited; progress of airway anaphylaxis (Mouse Asthma Model; DAY-31): inhibited; accumulation of eosinophils to auricle induced by application of the antigen (Auricular Edema Model): inhibited; swelling of ear induced by application of the antigen (Auricular Edema Model): inhibited
